The results in this text go back to EP1801112A1, “Bicyclic pyrimidines and bicyclic 3,4-dihydropyrimidines as inhibitors of cellular proliferation” (Warner-Lambert Company LLC, priority 1998, dated 1999).

In one assay the target is cdk4/D (Homo sapiens, UniProt P11802). The assay is described as follows: Cyclin-Dependent Kinase 4 (cdk4) Assay. Format: biochemical. On the procedure:
A typical assay, for instance, measures inhibitory activity against the cyclin D dependent kinase 4 enzyme (cdk4/D). […] The cdk4 assay was carried out as follows.
Cyclin-Dependent Kinase 4 (cdk4) Assay
Enzyme assays for IC50 determinations (Tables 1 and 2) and kinetic evaluation were performed in 96 well filter plates (Millipore MADVN6550). The total volume was 0.1 mL containing a final concentration of 20 mM TRIS (tris[hydroxymethyl]aminomethane), at pH 7.4, 50 mM NaCl, 1 mM dithiothreitol, 10 mM MgCl2, 25 µM ATP containing 0.25 µCi of [^32P]ATP, 20 ng of cdk4, 1 µg of retinoblastoma, and appropriate dilutions of a compound of the present invention. All components except the ATP were added to the wells, and the plate was placed on a plate mixer for 2 minutes. The reaction was started by adding [^32P]ATP and the plate was incubated at 25°C for 15 minutes. The reaction was terminated by addition of 0.1 mL of 20% trichloroacetic acid (TCA). The plate was kept at 4°C for at least 1 hour to allow the substrate to precipitate. The wells were then washed five times with 0.2 mL of 10% TCA and ^32P incorporation was determined with a beta plate counter (Wallac Inc., Gaithersburg, MD).

In assay [1] the target is T1, FGF-1 (flg) receptor tyrosine kinase (Homo sapiens, UniProt P11362).
T1 construct: amplify a fragment of DNA that codes for the intracellular tyrosine kinase domain; made in house; host or cells: SF9 insect cells (baculovirus); crude cell lysate used
Briefly: FGF Receptor Tyrosine Kinase Assay. Format: biochemical. To be noted: glutamate-tyrosine co-polymer substrate, 50 µM ATP. On the procedure: PDGF and FGF Receptor Tyrosine Kinase Assays
PCR primers were designed to amplify a fragment of DNA that codes for the intracellular tyrosine kinase domain. The fragment was inserted into a baculovirus vector, cotransfected with AcMNPV DNA, and the recombinant virus isolated. SF9 insect cells were infected with the virus to overexpress the protein, and the cell lysate was used for the assay. Assays were performed in 96-well plates (100 µL/incubation/well), and conditions were optimized to measure the incorporation of ^32P from γ^32P-ATP into a glutamate-tyrosine co-polymer substrate. Briefly, to each well was added 82.5 µL of incubation buffer containing 25 mM Hepes (pH 7.0), 150 mM NaCl, 0.1% Triton X-100, 0.2 mM PMSF, 0.2 mM Na3VO4, 10 mM MnCl2, and 750 µg/mL of Poly (4:1) glutamate-tyrosine followed by 2.5 µL of inhibitor and 5 µL of enzyme lysate (7.5 µg/µL FGF-TK or 6.0 µg/µL PDGF-TK) to initiate the reaction. […] The reaction was terminated by the addition of 100 µL of 30% trichloroacetic acid (TCA) containing 20 mM sodium pyrophosphate and precipitation of material onto glass fiber mats (Wallac). […] Nonspecific activity was defined as radioactivity retained on the filters following incubation of samples with buffer alone (no enzyme). Specific enzymatic activity (enzyme plus buffer) was defined as total activity minus nonspecific activity. […]

The next assay has as its target T2, c-Src (Homo sapiens, UniProt P12931).
T2 construct: made in house; host or cells: baculovirus infected insect cells
The assay is described as follows: c-Src protein kinase assay. To be noted: poly GluTyr substrate, 5 µM ATP. The format is biochemical. On the procedure:
The assay was carried out as follows: c-Src kinase was purified from baculovirus infected insect cell lysates using an antipeptide monoclonal antibody directed against the N-terminal amino acids (amino acids 2-17) of c-Src. The antibody, covalently linked to 0.65 µm latex beads, was added to a suspension of insect cell lysis buffer comprised of 150 mM NaCl, 50 mM Tris pH 7.5, 1 mM DTT, 1% NP-40, 2 mM EGTA, 1 mM sodium vanadate, 1 mM PMSF, 1 µg/mL each of leupeptin, pepstatin, and aprotinin. Insect cell lysate containing c-Src protein was incubated with these beads for 3 to 4 hours at 4°C with rotation. At the end of the lysate incubation, the beads were rinsed three times in lysis buffer, resuspended in lysis buffer containing 10% glycerol, and frozen. These latex beads were thawed, rinsed three times in assay buffer (40 mM Tris, pH 7.5, […]) and suspended in the same buffer. In a Millipore 96-well plate with a 0.65 µm polyvinylidine membrane bottom were added the reaction components: 10 µL c-Src beads, 10 µL of 2.5 mg/mL poly GluTyr substrate, 5 µM ATP containing 0.2 µCi labeled ^32P-ATP, 5 µL DMSO containing inhibitors or as a solvent control, and buffer to make the final volume 125 µL. The reaction was started at room temperature by addition of the ATP and quenched 10 minutes later by the addition of 125 µL of 30% TCA, 0.1 M sodium pyrophosphate for 5 minutes on ice. […] The filters were then punched, counted in a liquid scintillation counter, and the data examined for inhibitory activity in comparison to a known inhibitor such as erbstatin. […]

In the next assay the target is cdk2/cyclinE (Homo sapiens, UniProt P24941). The assay is described as follows: Cyclin-Dependent Kinase Assay cdk2/cyclinE. Format: biochemical. On the procedure:
(§1) Cyclin-Dependent Kinase Assays (cdk2/cyclinE, cdk2/cyclinA, cdc2/cyclinB)
(§2) All components except the ATP were added to the wells, and the plate was placed on a plate mixer for 2 minutes. The reaction was begun by addition of [^32P]ATP, and the plate was incubated at 25°C for 15 minutes. The reaction was terminated by addition of 0.1 mL of 20% TCA. The plate was kept at 4°C for at least 1 hour to allow the substrate to precipitate. The wells were then washed five times with 0.2 mL of 10% TCA and ^32P incorporation determined with a beta plate counter (Wallac Inc., Gaithersburg, MD).

For a further assay, the target named is cdk2/cyclinA (Homo sapiens, UniProt P24941). The assay is described as follows: Cyclin-Dependent Kinase Assay cdk2/cyclinA. Format: biochemical. On the procedure: as §1, §2
Another assay addresses cdc2/cyclinB (Homo sapiens, UniProt P06493). Briefly: Cyclin-Dependent Kinase Assay cdc2/cyclinB. The format is biochemical. On the procedure: as §1, §2
The test system of assay [2] is human umbilical vein endothelial cells. Briefly: Human Umbilical Vein Endothelial Cell (HUVEC) Proliferation Assay. Format: cell-based. As to conditions: 96 h, four days incubation, Sulphorhodamine B staining. On the procedure: The compounds of Formula I are useful for treating cell proliferative disorders concerning angiogenesis and have been evaluated in a human umbilical vein endothelial cell in vitro assay. The assay described below is used to determine the anti-proliferative effects of the invention compounds on human umbilical vein endothelial cells, and the results are shown in Table 7.
Human Umbilical Vein Endothelial Cell (HUVEC) Proliferation Assay
Ninety-six well tissue culture plates are seeded with 100 µL of cells in all wells of rows A->G with row H remaining empty as a blank. HUVEC (Clonetics, San Diego, CA) are grown in endothelial growth medium (EGM media, Clonetics), containing 2% fetal bovine serum. The cell seed density for HUVEC cells is 20,000 per mL. C6 cells (ATCC Cat. No. CCL-107) are seeded at 6000 per mL in F10 medium (nutrient mixture Hemes) supplemented with 15% horse serum, 2.5% fetal bovine serum, and 6.0 mL 200 mM Glutamine per 600 mL medium. A90 cells (Suny, Buffalo, NY) are also seeded at 6000 per mL, but they are grown in RPMI 1640 (Roswell Park Memorial Institute) plus 10% fetal bovine serum. Unless noted otherwise, tissue culture media and components are from GIBCO. The cells are allowed to incubate at 37°C, 5% CO2, and 100% relative humidity for 16-24 hours.
Invention compounds are prepared by dissolving them in DMSO at a concentration of 5 mM, followed by dilution to 50 µM in EGM media. One hundred microliters of the compounds are applied to duplicate wells in column 1 of the previously prepared cell plates. Column 1 row H receives 100 µL of EGM media. The compounds in column 1 are diluted across the plates using serial twofold dilutions.
The plates are incubated as above for an additional four days before being stained with Sulphorhodamine B. Staining is performed as follows: The media is removed from the plates, and the cells are fixed using 10% trichloroacetic acid for 30 minutes at 4°C. Following fixation, the plates are washed five times with distilled water after which 100 µL of Sulphorhodamine B is added to each well. Sulphorhodamine B is dissolved in 1% acetic acid to a concentration of .075%. Following staining, excess stain is removed from the wells, and the plates are washed four times with 1% acetic acid. The plates are allowed to air dry before the bound dye is solubilized in 100 µL of 10 mM unbuffered TRIS base. Absorbance is measured on a 96 well plate reader at […] using a reference filter wavelength of 630 nm. […] Sulphorhodamine B and TRIS are from Sigma Chemical Company. Acetic acid and trichloroacetic acid are from Mallinckrodt AR.
For orientation: The SRB assay estimates cell density from bound dye.

[3] abbreviates: 25 µM ATP, retinoblastoma substrate, read-out: IC50 (µM) cdk4/D.

Read-outs that look alike come from different tables or passages of the source.

T1 sequence (P11362 478-767 limits assumed): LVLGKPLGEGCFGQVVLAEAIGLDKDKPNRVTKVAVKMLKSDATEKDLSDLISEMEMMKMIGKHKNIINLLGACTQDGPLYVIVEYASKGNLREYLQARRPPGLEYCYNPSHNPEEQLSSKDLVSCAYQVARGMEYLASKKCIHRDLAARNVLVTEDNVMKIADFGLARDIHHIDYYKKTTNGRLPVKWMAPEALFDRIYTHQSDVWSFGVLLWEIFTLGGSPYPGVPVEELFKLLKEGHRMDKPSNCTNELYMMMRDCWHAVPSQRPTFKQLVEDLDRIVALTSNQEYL
Sequence of cdk4/D (P11802 whole entry): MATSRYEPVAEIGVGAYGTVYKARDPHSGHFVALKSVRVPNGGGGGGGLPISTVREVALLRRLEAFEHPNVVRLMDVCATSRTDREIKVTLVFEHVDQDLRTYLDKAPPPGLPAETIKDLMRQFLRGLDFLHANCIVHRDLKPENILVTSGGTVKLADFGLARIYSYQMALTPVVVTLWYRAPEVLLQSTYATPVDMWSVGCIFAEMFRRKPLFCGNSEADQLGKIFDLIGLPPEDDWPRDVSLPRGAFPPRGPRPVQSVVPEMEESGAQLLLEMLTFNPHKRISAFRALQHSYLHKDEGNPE
Sequence of cdk4/D (P24385 whole entry, further chain): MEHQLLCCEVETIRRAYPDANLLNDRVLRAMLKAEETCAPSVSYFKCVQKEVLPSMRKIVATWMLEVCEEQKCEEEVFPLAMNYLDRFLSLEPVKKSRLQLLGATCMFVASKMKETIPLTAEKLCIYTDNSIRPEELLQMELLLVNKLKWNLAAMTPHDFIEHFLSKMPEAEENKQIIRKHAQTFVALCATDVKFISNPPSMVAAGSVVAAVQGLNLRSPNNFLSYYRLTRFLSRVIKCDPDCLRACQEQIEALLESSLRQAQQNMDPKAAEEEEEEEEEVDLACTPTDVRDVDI
T2 sequence (P12931 whole entry): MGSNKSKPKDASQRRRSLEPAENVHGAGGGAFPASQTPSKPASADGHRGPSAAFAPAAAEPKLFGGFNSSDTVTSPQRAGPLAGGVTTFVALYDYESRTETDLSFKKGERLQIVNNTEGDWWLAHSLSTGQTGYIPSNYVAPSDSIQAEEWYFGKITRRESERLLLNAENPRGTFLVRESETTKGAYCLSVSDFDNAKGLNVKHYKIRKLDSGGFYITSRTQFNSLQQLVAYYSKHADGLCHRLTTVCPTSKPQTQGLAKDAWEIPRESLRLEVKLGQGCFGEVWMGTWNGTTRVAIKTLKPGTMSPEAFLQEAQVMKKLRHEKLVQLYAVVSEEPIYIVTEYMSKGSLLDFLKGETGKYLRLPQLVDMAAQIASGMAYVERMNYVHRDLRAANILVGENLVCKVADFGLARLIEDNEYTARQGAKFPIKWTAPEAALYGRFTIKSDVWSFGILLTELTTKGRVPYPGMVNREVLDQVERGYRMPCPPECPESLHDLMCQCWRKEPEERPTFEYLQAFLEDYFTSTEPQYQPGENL
Sequence of cdc2/cyclinB (P06493 whole entry): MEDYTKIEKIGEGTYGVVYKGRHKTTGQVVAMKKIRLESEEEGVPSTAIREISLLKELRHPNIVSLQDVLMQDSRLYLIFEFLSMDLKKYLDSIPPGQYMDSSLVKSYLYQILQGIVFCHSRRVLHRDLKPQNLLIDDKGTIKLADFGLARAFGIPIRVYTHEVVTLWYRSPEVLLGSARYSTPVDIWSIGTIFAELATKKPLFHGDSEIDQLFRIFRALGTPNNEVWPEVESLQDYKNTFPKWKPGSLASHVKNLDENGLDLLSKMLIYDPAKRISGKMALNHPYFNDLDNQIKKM
Sequence of cdc2/cyclinB (P14635 whole entry, further chain): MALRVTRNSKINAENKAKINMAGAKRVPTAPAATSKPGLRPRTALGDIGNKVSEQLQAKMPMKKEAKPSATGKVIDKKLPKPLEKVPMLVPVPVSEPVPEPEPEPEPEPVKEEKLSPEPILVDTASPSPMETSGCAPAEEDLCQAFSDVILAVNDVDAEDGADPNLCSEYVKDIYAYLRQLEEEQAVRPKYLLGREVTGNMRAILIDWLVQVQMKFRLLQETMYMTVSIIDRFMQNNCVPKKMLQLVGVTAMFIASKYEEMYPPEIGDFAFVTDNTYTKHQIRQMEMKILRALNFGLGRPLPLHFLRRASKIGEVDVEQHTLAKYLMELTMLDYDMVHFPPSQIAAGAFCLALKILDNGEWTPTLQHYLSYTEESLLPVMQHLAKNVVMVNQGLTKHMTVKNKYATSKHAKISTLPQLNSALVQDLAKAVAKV

For the compound `O=C1NCc2cnc(Nc3ccc(N4CCCCC4CO)cc3)nc2N1C1CCCC1` (stereo not drawn) [Example 19, 1-Cyclopentyl-7-[4-(2-hydroxymethylpiperidin-1-yl)phenylamino]-3,4-dihydro-pyrimido[4,5-d]pyrimidin-2(1H)-one], the results for the IC50 (on cdk4/D; in assay [1]; on c-Src) were 0.5 µM, 0.05 to 0.5 µM and 4.42 µM, respectively.

Regarding `O=C1NCc2cnc(Nc3ccc(N4CCC(O)CC4)cc3)nc2N1C1CCCC1` [Example 15, 1-Cyclopentyl-7-[4-(4-hydroxypiperidin-1-yl)phenylamino]-3,4-dihydropyrimido[4,5-d]pyrimidin-2(1H)-one], the IC50 was 0.7 µM on cdk4/D (setting [3]); 2.2 µM on cdk2/cyclinE (retinoblastoma substrate, read-out: IC50 (µM) cdk2/E); 0.6 µM at cdk2/cyclinA (retinoblastoma substrate, read-out: IC50 (µM) cdk2/A); 16.8 µM at cdc2/cyclinB (retinoblastoma substrate, read-out: IC50 (µM) cdkl/B); 0.05 to 0.5 µM in assay [1]; 2.4 µM against c-Src.

In assay [2], `CCN(CC)CCCCNc1ncc2c(n1)NC(=O)N(c1cc(OC)cc(OC)c1)C2` [Example 52, 7-(4-Diethylamino-butylamino)-3-(3,5-dimethoxy-phenyl)-3,4-dihydropyrimido[4,5-d]pyrimidin-2(1H)-one] yielded an IC50 of 6.65 µM.

`CCN(CC)CCCNc1ncc2c(n1)NC(=O)N(c1cc(OC)cc(OC)c1)C2` [Example 55, 7-(3-Diethylamino-propylamino)-3-(3,5-dimethoxy-phenyl)-3,4-dihydropyrimido[4,5-d]pyrimidin-2(1H)-one]: the IC50 in assay [2] was > 25 µM.

`CC(C)n1c(=O)ncc2cnc(Nc3ccc(N4CCN(C)CC4)cc3)nc21` [Example 40, 1-Isopropyl-7-[4-(4-methylpiperazin-1-yl)phenylamino]pyrimido[4,5-d]pyrimidin-2(1H)-one]: the IC50 on cdk2/cyclinE stood at 16.5 µM; against cdk2/cyclinA, 4.51 µM; in assay [1], 1.13 µM; against c-Src, 4.3 µM.

In assay [2], `CCN1C(=O)N(c2cc(OC)cc(OC)c2)Cc2cnc(NCCCCCN3CCN(C)CC3)nc21` [Example 59, 3-(3,5-Dimethoxy-phenyl)-1-ethyl-7-[5-(4-methyl-piperazin-1-yl)-pentylamino]-3,4-dihydro-pyrimido[4,5-d]pyrimidin-2(1H)-one] registered an IC50 of 0.112 µM.

Take `O=C1NCc2cnc(Nc3ccc(-n4cccc4)cc3)nc2N1C1CCCC1` [Example 14, 1-Cyclopentyl-7-[4-(pyrrol-1-yl)phenylamino]-3,4-dihydropyrimido[4,5-d]pyrimidin-2(1H)-one]: the IC50 is 17.8 µM against cdk4/D, 5.1 µM on cdk2/cyclinA, > 20 µM against cdc2/cyclinB and > 50 µM against c-Src.

`CCN(CC)CCCNc1ncc2c(n1)N(CC)C(=O)N(c1cc(OC)cc(OC)c1)C2` [Example 60, 7-(3-Diethylamino-propylamino)-3-(3,5-dimethoxy-phenyl)-1-ethyl-3,4-dihydro-pyrimido[4,5-d]pyrimidin-2(1H)-one] displayed an IC50 in assay [2] of 0.943 µM.

`CCN(CC)CCCCNc1ncc2c(n1)N(CC)C(=O)N(c1cc(OC)cc(OC)c1Cl)C2` [Example 65, 3-(2-Chloro-3,5-dimethoxy-phenyl)-7-(4-diethylamino-butylamino)-1-ethyl-3,4-dihydro-pyrimido[4,5-d]pyrimidin-2(1H)-one] gave an IC50 in assay [2] of 0.036 µM.

Regarding `CCN1C(=O)N(c2cc(OC)cc(OC)c2)Cc2cnc(NCCCN3CCN(C)CC3)nc21` [Example 57, 3-(3,5-Dimethoxy-phenyl)-1-ethyl-7-[3-(4-methyl-piperazin-1-yl)-propylamino]-3,4-dihydro-pyrimido[4,5-d]pyrimidin-2(1H)-one], the IC50 in assay [2] turned out to be 0.152 µM.

As to `O=C1NCc2cnc(Nc3ccc(N4CCCCC4)cc3)nc2N1C1CCCC1` [Example 10, 1-Cyclopentyl-7-[4-(piperidin-1-yl)phenylamino]-3,4-dihydropyrimido[4,5-d]pyrimidin-2(1H)-one], the values for the IC50 (on cdk4/D (setting [3]); in assay [1]; against c-Src) were 1.55 µM, 0.64 µM and > 50 µM, respectively.

Turning to `COc1cc(OC)cc(N2Cc3cnc(NCCNCc4ccncc4)nc3NC2=O)c1` [Example 54, 3-(3,5-Dimethoxy-phenyl)-7-{2-[(pyridin-4-ylmethyl)-amino]-ethylamino}-3,4-dihydro-pyrimido[4,5-d]pyrimidin-2(1H)-one], the IC50 in assay [2] is > 25 µM.

As to `CC(C)N1C(=O)NCc2cnc(Nc3ccc(N4CCN(C)CC4)cc3)nc21` [Example 22, 1-Isopropyl-7-[4-(4-methylpiperazin-1-yl)phenylamino]-3,4-dihydropyrimido[4,5-d]pyrimidin-2(1H)-one], the values for the IC50 against cdk4/D, against cdk2/cyclinA and at c-Src were 0.34 µM, 9.31 µM and 1.51 µM, respectively.
